Results published in ChEMBL document CHEMBL5291721, “A preclinical secondary pharmacology resource illuminates target-adverse drug reaction associations of marketed drugs” (Nat Commun, 2023).

Biological target: Bile salt export pump (Homo sapiens, UniProt O95342)
Assay type: functional
Further: assay procedure not described here.

Bile salt export pump, sequence (O95342 whole entry): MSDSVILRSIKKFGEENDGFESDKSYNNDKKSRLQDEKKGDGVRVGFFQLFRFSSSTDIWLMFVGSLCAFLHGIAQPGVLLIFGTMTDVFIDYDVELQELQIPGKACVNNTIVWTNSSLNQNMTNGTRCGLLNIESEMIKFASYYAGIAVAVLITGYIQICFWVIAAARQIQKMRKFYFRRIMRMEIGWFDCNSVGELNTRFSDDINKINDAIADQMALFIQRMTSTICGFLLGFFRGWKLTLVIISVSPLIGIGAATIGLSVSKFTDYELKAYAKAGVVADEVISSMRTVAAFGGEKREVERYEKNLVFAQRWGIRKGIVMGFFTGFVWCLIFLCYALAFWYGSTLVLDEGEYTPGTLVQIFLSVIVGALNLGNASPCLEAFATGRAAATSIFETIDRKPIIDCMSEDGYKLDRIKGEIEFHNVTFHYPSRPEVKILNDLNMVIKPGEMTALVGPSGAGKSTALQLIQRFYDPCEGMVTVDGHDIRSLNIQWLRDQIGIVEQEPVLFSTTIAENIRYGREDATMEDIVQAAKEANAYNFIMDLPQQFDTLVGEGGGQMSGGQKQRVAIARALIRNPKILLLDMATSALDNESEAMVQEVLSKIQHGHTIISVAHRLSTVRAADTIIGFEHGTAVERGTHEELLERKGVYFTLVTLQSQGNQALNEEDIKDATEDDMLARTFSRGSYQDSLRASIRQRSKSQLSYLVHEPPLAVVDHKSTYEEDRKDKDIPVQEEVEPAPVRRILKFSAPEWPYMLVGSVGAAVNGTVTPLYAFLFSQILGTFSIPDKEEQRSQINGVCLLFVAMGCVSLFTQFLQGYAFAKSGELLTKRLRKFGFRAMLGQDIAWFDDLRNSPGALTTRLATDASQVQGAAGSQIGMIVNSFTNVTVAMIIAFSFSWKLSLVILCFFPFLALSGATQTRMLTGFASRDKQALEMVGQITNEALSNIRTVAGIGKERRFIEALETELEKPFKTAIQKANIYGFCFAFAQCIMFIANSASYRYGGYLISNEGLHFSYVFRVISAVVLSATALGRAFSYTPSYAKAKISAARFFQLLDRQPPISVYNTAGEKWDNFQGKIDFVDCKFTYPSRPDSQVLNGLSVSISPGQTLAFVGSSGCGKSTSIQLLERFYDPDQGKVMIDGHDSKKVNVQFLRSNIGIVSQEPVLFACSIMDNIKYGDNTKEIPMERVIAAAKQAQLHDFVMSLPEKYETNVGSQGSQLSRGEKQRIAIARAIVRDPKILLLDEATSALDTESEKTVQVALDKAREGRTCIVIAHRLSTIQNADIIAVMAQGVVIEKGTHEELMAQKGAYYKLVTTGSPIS

SMILES	AC50 [µM]
CC(=N)N1CC[C@H](SC2=C(C(=O)O)N3C(=O)[C@H]([C@@H](C)O)[C@H]3C2)C1	> 300
CC(/C=C1\SC(=S)N(CC(=O)O)C1=O)=C\c1ccccc1	1.6
CC1(C)S[C@@H]2[C@H](NC(=O)[C@H](N)c3ccc(O)cc3)C(=O)N2[C@H]1C(=O)O [AMOXICILLIN]	> 300
O=C1CN2Cc3c(ccc(Cl)c3Cl)N=C2N1 [ANAGRELIDE]	> 300
CNCC[C@@H](Oc1ccccc1C)c1ccccc1 [ATOMOXETINE]	> 300
CCc1oc2ccccc2c1C(=O)c1cc(Br)c(O)c(Br)c1 [BENZBROMARONE]	3
C=C(C)[C@@H]1CCC(C)=C[C@H]1c1c(O)cc(CCCCC)cc1O [CANNABIDIOL]	53
CO/N=C(\C(=O)N[C@@H]1C(=O)N2C(C(=O)O)=C(COC(N)=O)CS[C@H]12)c1ccco1 [CEFUROXIME]	> 300
[H]/N=C(\N/C(=N/[H])NCCCCCCNC(=N)NC(=N)Nc1ccc(Cl)cc1)Nc1ccc(Cl)cc1 [CHLORHEXIDINE]	170
Clc1cccc(Cl)c1N=C1NCCN1 [CLONIDINE]	> 300
COC(=O)[C@H](c1ccccc1Cl)N1CCc2sccc2C1 [CLOPIDOGREL]	40
CN1C[C@H](C(=O)N[C@]2(C)O[C@@]3(O)[C@@H]4CCCN4C(=O)[C@H](Cc4ccccc4)N3C2=O)C[C@@H]2c3cccc4[nH]cc(c34)C[C@H]21 [DIHYDROERGOTAMINE]	28
CNCC[C@H](Oc1cccc2ccccc12)c1cccs1 [DULOXETINE]	> 300
CC1(C)O[C@@H]2C[C@H]3[C@@H]4C[C@H](F)C5=CC(=O)C=C[C@]5(C)[C@H]4[C@@H](O)C[C@]3(C)[C@]2(C(=O)CO)O1 [FLUNISOLIDE]	77
Nc1nc(O)c2ncn(COC(CO)CO)c2n1 [GANCICLOVIR]	> 300
C[C@H]1Oc2cc(cnc2N)-c2c(nn(C)c2C#N)CN(C)C(=O)c2ccc(F)cc21 [LORLATINIB]	120
